According to PubChem BioAssay AID512:

The compounds below were run against Carbonyl reductase [NADPH] 3 (Homo sapiens) (UniProt O75828) (assay: ligand binding to human carbonyl reductase 3 – biophysical, DSF, SYPRO orange, recombinant protein (AID 512)). Settings: recombinant CBR3, DSF SYPRO orange thermal shift; at 10 µM; buffer 10 mM HEPES; pH 7.5; NaCl 150 mM; NADP 100 µM; protein 2 µM; stronger effect = higher value.
Carbonyl reductase [NADPH] 3 (Homo sapiens), sequence (O75828 whole entry, looked up): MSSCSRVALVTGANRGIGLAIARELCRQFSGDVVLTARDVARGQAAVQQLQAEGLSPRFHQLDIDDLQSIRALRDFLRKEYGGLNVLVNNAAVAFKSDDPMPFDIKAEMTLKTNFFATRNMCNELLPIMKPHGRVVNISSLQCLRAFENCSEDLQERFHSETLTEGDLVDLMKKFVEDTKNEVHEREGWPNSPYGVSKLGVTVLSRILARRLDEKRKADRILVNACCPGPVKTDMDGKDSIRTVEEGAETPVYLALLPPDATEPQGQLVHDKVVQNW

Row | Tm shift [Celsius] | SMILES
1 | 3.1 | COc1cc(/C=C/C(=O)CC(=O)/C=C/c2ccc(O)c(OC)c2)ccc1O
2 | 2.4 | Cc1ccc2c(c1)=C(c1[nH]c(=S)[nH]c1O)C(=O)N=2
3 | 2.1 | Brc1ccc(-c2[nH]c(-c3c[nH]c4ccccc34)nc2-c2ccccc2)cc1

Same assay, conditions: recombinant CBR3, DSF SYPRO orange thermal shift; at 10 µM; buffer 10 mM HEPES; pH 7.5; NaCl 150 mM; protein 2 µM; stronger effect = higher value

Row | Tm shift [Celsius] | SMILES
4 | 2.1 | O=C1C(=O)C(c2ccc(O)cc2)Oc2cc(O)cc(O)c21 (centres undefined)
5 | 3.1 | O=c1oc2cc(O)ccc2c2oc3cc(O)ccc3c12
6 | 2.2 | O=C1C(=O)C(c2ccc(O)cc2O)Oc2cc(O)cc(O)c21 (centres undefined)

Second part, the compound before the results:

Row | SMILES | Tm shift [Celsius]
7 | NC(=O)c1ccc[n+](C2OC(COP(=O)(O)OP(=O)(O)OCC3OC(n4cnc5c(N)ncnc54)C(OP(=O)(O)O)C3O)C(O)C2O)c1 (centres undefined) | 4.4
8 | CCN(CC)C(=S)SSC(=S)N(CC)CC | 2.5

Same assay, conditions: recombinant CBR3, DSF SYPRO orange thermal shift; measured here: second experiment Tm shift; at 10 µM; run 2; buffer 10 mM HEPES; pH 7.5; NaCl 150 mM; NADP 100 µM; protein 2 µM; stronger effect = higher value

Row | Tm shift [Celsius] | SMILES
9 | 2.4 | COc1cc(/C=C/C(=O)CC(=O)/C=C/c2ccc(O)c(OC)c2)ccc1O
